Reference: US12528800B2, “Pesticidal compounds” (BASF SE, priority 2018, dated 2026)

Assays:
Type in all cases: in vivo
[1] = system: yellow fever mosquito (Aedes aegypti); test: whole plant or invertebrate; conditions: 48 h, larval mortality visually assessed after 2 days, read-out: mortality in comparison with untreated controls
Method: For evaluating control of yellow fever mosquito (Aedes aegypti) the test unit consisted of 96-well-microtiter plates containing 200 μl of tap water per well and 5-15 freshly hatched A. aegypti larvae.
The active compounds or mixtures were formulated using a solution containing 75% (v/v) water and 25% (v/v) DMSO. Different concentrations of formulated compounds or mixtures were sprayed onto the insect diet at 2.5 μl using a custom built micro atomizer, at two replications.
For experimental mixtures in these tests identical volumes of both mixing partners at the desired concentrations respectively, were mixed together.
After application, microtiter plates were incubated at 28+1° C., 80+5% RH for 2 days. Larval mortality was then visually assessed.

[2] = system: Orchid thrips (Dichromothrips corbetti); test: Action on orchid thrips (Dichromothrips corbetti), floral-immersion technique; conditions: adult thrips, 72 hours after treatment, read-out: mortality in comparison with untreated controls
Method: Dichromothrips corbetti adults used for bioassay were obtained from a colony maintained continuously under laboratory conditions. For testing purposes, the test compound is diluted in a 1:1 mixture of acetone:water (vol:vol), plus Kinetic® HV at a rate of 0.01% v/v.
Thrips potency of each compound was evaluated by using a floral-immersion technique. All petals of individual, intact orchid flowers were dipped into treatment solution and allowed to dry in Petri dishes. Treated petals were placed into individual re-sealable plastic along with about 20 adult thrips. All test arenas were held under continuous light and a temperature of about 28° C. for duration of the assay. After 3 days, the numbers of live thrips were counted on each petal. The percent mortality was recorded 72 hours after treatment.

[3] = system: boll weevil (Anthonomus grandis); test: Action on boll weevil (Anthonomus grandis), microtiter plate diet test; conditions: 120 h, egg and larval mortality after 5 days, read-out: mortality in comparison with untreated controls
Method: For evaluating control of boll weevil (Anthonomus grandis) the test unit consisted of 96-well-microtiter plates containing an insect diet and 5-10 A. grandis eggs.
The compounds were formulated using a solution containing 75% (v/v) water and 25% (v/v) DMSO. Different concentrations of formulated compounds were sprayed onto the insect diet at 5 μl, using a custom built micro atomizer, at two replications.
After application, microtiter plates were incubated at about 25+1° C. and about 75+5% relative humidity for 5 days. Egg and larval mortality was then visually assessed.

[4] = system: Silverleaf whitefly (Bemisia argentifolii) (adults); test: Action on silverleaf whitefly (Bemisia argentifolii) adults, sprayed cotton plants; conditions: 72 h, 3 days after treatment, read-out: mortality in comparison with untreated controls
Method: (§1) The active compounds were formulated by a Tecan liquid handler in 100% cyclohexanone as a 10,000 ppm solution supplied in tubes. The 10,000 ppm solution was serially diluted in 100% cyclohexanone to make interim solutions. These served as stock solutions for which final dilutions were made by the Tecan in 50% acetone:50% water (v/v) into 5 or 10 ml glass vials. A nonionic surfactant (Kinetic®) was included in the solution at a volume of 0.01% (v/v). The vials were then inserted into an automated electrostatic sprayer equipped with an atomizing nozzle for application to plants/insects.
Cotton plants at the cotyledon stage (one plant per pot) were sprayed by an automated electrostatic plant sprayer equipped with an atomizing spray nozzle. The plants were dried in the sprayer fume hood and then removed from the sprayer. Each pot was placed into a plastic cup and about 10 to 12 whitefly adults (approximately 3-5 days old) were introduced. The insects were collected using an aspirator and a nontoxic Tygon® tubing connected to a barrier pipette tip. The tip, containing the collected insects, was then gently inserted into the soil containing the treated plant, allowing insects to crawl out of the tip to reach the foliage for feeding. Cups were covered with a reusable screened lid. Test plants were maintained in a growth room at about 25° C. and about 20-40% relative humidity for 3 days, avoiding direct exposure to fluorescent light (24 hour photoperiod) to prevent trapping of heat inside the cup. Mortality was assessed 3 days after treatment, compared to untreated control plants.

[5] = system: tobacco budworm (Heliothis virescens); test: Action on tobacco budworm (Heliothis virescens), microtiter plate diet test; conditions: 120 h, egg and larval mortality after 5 days, read-out: mortality in comparison with untreated controls
Method: For evaluating control of tobacco budworm (Heliothis virescens) the test unit consisted of 96-well-microtiter plates containing an insect diet and 15-25 H. virescens eggs.
The compounds were formulated using a solution containing 75% v/v water and 25% v/v DMSO. Different concentrations of formulated compounds were sprayed onto the insect diet at 10 μl, using a custom-built micro atomizer, at two replications.
After application, microtiter plates were incubated at about 28+1° C. and about 80+5% relative humidity for 5 days. Egg and larval mortality were then visually assessed.

[6] = system: Diamond back moth (Plutella xylostella); test: Action on diamond back moth (Plutella xylostella), cabbage leaf dip; conditions: foliar, 3rd instar larvae on dipped cabbage leaves, 72 hours after treatment, read-out: mortality in comparison with untreated controls
Method: The active compound is dissolved at the desired concentration in a mixture of 1:1 (v/v) distilled water: acetone. Surfactant (Kinetic® HV) is added at a rate of 0.01% (v/v). The test solution is prepared at the day of use.
Leaves of cabbage were dipped in test solution and air-dried. Treated leaves were placed in petri dishes lined with moist filter paper and inoculated with ten 3rd instar larvae. Mortality was recorded 72 hours after treatment. Feeding damages were also recorded using a scale of 0-100%.

[7] = system: Southern armyworm (Spodoptera eridania), 2nd instar larvae; test: Action on southern armyworm (Spodoptera eridania), 2nd instar larvae, sprayed lima bean plants; conditions: 96 h, 2nd instar larvae on lima bean plants, 4 days after treatment, read-out: mortality in comparison with untreated controls
Method: as §1, with “into 10” for “into 5”, “or 20” for “or 10”
Lima bean plants (variety Sieve) were grown 2 plants to a pot and selected for treatment at the 1st true leaf stage. Test solutions were sprayed onto the foliage by an automated electrostatic plant sprayer equipped with an atomizing spray nozzle. The plants were dried in the sprayer fume hood and then removed from the sprayer. Each pot was placed into perforated plastic bags with a zip closure. About 10 to 11 armyworm larvae were placed into the bag and the bags zipped closed. Test plants were maintained in a growth room at about 25° C. and about 20-40% relative humidity for 4 days, avoiding direct exposure to fluorescent light (24 hour photoperiod) to prevent trapping of heat inside the bags. Mortality and reduced feeding were assessed 4 days after treatment, compared to untreated control plants.

SMILES | mortality at 800 ppm [1] | mortality at 500 ppm [2] | mortality at 800 ppm [3] | mortality at 300 ppm [4] | mortality at 800 ppm [5] | mortality at 500 ppm [6] | mortality at 300 ppm [7]
CC(C)c1ccccc1NC(=S)N/N=C/c1ccc(-c2cc(NC(=O)c3ccc(OC(F)(F)F)cc3)n(C)n2)cc1 [Compound C-1, N-[5-[4-[(E)-[(2-isopropylphenyl)carbamothioylhydrazono]methyl]phenyl]-2-methyl-pyrazol-3-yl]-4-(trifluoromethoxy)benzamide] | ≥ 50% | ≥ 75% | ≥ 75% | ≥ 75% | ≥ 75% | ≥ 75% | ≥ 75%
CC(C)c1ccccc1NC(=S)N/N=C/c1ccc(-c2cc(OCc3ccc(OC(F)(F)F)cc3)n(C)n2)cc1 [Compound C-10, 1-(2-isopropylphenyl)-3-[(E)-[4-[1-methyl-5-[[4-(trifluoromethoxy)phenyl]methoxy]pyrazol-3-yl]phenyl]methyleneamino]thiourea] |  | ≥ 75% | ≥ 75% | ≥ 75% | ≥ 75% | ≥ 75% | ≥ 75%
CC(C)c1ccccc1NC(=S)N/N=C/c1ccc(-c2cc(COc3ccc(OC(F)(F)F)cc3)n(C)n2)cc1 [Compound C-52, 1-(2-isopropylphenyl)-3-[(E)-[4-[1-methyl-5-[[4-(trifluoromethoxy)phenoxy]methyl]pyrazol-3-yl]phenyl]methyleneamino]thiourea] | ≥ 50% | ≥ 75% | ≥ 75% | ≥ 75% | ≥ 75% | ≥ 75% | ≥ 75%
CC(C)c1ccccc1N1C(=O)CS/C1=N\N=C\c1ccc(-c2nc(NC(=O)c3ccc(OC(F)(F)F)cc3)n(C)n2)cc1 [Compound C-64, N-[5-[4-[(E)-[(Z)-[3-(2-isopropylphenyl)-4-oxo-thiazolidin-2-ylidene]hydrazono]methyl]phenyl]-2-methyl-1,2,4-triazol-3-yl]-4-(trifluoromethoxy)benzamide] | ≥ 50% | ≥ 75% | ≥ 75% |  | ≥ 75% | ≥ 75% | ≥ 75%
